Patent US20250241994A1, “PHARMACEUTICAL FORMULATION OF GLUCAGON-LIKE PEPTIDE -1 RECEPTOR AGONIST PEPTIDE FOR SUBLINGUAL DELIVERY” (Immunwork Inc., priority 2024, published 2025)
Values after ≈ are worked out from the molar mass of the structure shown.

Tests used:
[1] = semaglutide: based on the known highest dosage form for subcutaneous injection; cited from earlier work
[2] = Estimated bioavailability of sublingual relative to subcutaneous delivery (blood glucose lowering at 24 h); design: species or system db/db mice; settings: male, db/db, mouse, in vivo, bioavailability of sublingually administered GLP-1 RA-P relative to subcutaneous administration
Excerpt: The term “bioavailability of GLP-1 RA-P” as used herein refers to an estimated bioavailability of a sublingually administered GLP-1 RA-P in relative to that achieved by subcutaneous injection. Accordingly, the “bioavailability of GLP-1 RA-P” is expressed as a percentage of bioavailability achieves by subcutaneous injected GLP-1 RA-P. To estimate the bioavailability of sublingual delivery in relative to subcutaneous delivery in db/db mice, the blood glucose-lowering effects of two sublingual doses of varying amounts were compared with one subcutaneous dose of a specific amount at the 24-hour time point (just before the third sublingual dose). […] By comparing the combined effect of the two sublingual doses to the subcutaneous dose, the relative bioavailability is estimated.
Further, blood glucose levels in db/db mice are highly sensitive to changes in GLP-1 RA-P drug concentrations, making glucose measurements a reliable indicator of the drug's availability in the bloodstream. In the experiments described in this study, the db/db mouse model was used to evaluate the efficiency of sublingual drug delivery, estimate bioavailability via sublingual versus subcutaneous administration, and examine the cumulative effects of repeated sublingual dosing.
For these experiments, 30 male db/db mice, aged 6 weeks and weighing 35-40 g, were used. […]

Row | Compound | solubility in aqueous buffer [1] | bioavailability at 24 h [2]
1 | CC[C@H](C)[C@H](NC(=O)[C@H](Cc1ccccc1)NC(=O)[C@H](CCC(=O)O)NC(=O)[C@H](CCCCNC(=O)COCCOCCNC(=O)COCCOCCNC(=O)CC[C@H](NC(=O)CCCCCCCCCCCCCCCCC(=O)O)C(=O)O)NC(=O)[C@H](C)NC(=O)[C@H](C)NC(=O)[C@H](CCC(N)=O)NC(=O)CNC(=O)[C@H](CCC(=O)O)NC(=O)[C@H](CC(C)C)NC(=O)[C@H](Cc1ccc(O)cc1)NC(=O)[C@H](CO)NC(=O)[C@H](CO)NC(=O)[C@@H](NC(=O)[C@H](CC(=O)O)NC(=O)[C@H](CO)NC(=O)[C@@H](NC(=O)[C@H](Cc1ccccc1)NC(=O)[C@@H](NC(=O)CNC(=O)[C@H](CCC(=O)O)NC(=O)C(C)(C)NC(=O)[C@@H](N)Cc1cnc[nH]1)[C@@H](C)O)[C@@H](C)O)C(C)C)C(=O)N[C@@H](C)C(=O)N[C@@H](Cc1c[nH]c2ccccc12)C(=O)N[C@@H](CC(C)C)C(=O)N[C@H](C(=O)N[C@@H](CCCNC(=N)N)C(=O)NCC(=O)N[C@@H](CCCNC(=N)N)C(=O)NCC(=O)O)C(C)C [semaglutide] | 3200 µg/mL (≈ 778 µM) | 
2 | CC[C@H](C)[C@H](NC(=O)[C@H](CC(C)C)NC(=O)[C@H](Cc1c[nH]c2ccccc12)NC(=O)[C@H](CCC(N)=O)NC(=O)[C@@H](NC(=O)[C@H](Cc1ccccc1)NC(=O)[C@H](C)NC(=O)[C@H](CCCCNC(=O)COCCOCCNC(=O)COCCOCCNC(=O)CC[C@H](NC(=O)CCCCCCCCCCCCCCCCCCC(=O)O)C(=O)O)NC(=O)[C@H](CCC(N)=O)NC(=O)[C@H](C)NC(=O)[C@@H](NC(=O)[C@H](CCCCN)NC(=O)[C@H](CC(=O)O)NC(=O)[C@H](CC(C)C)NC(=O)C(C)(C)NC(=O)[C@@H](NC(=O)[C@H](CO)NC(=O)[C@H](Cc1ccc(O)cc1)NC(=O)[C@H](CC(=O)O)NC(=O)[C@H](CO)NC(=O)[C@@H](NC(=O)[C@H](Cc1ccccc1)NC(=O)[C@@H](NC(=O)CNC(=O)[C@H](CCC(=O)O)NC(=O)C(C)(C)NC(=O)[C@@H](N)Cc1ccc(O)cc1)[C@@H](C)O)[C@@H](C)O)[C@@H](C)CC)[C@@H](C)CC)C(C)C)C(=O)N[C@@H](C)C(=O)NCC(=O)NCC(=O)N1CCC[C@H]1C(=O)N[C@@H](CO)C(=O)N[C@@H](CO)C(=O)NCC(=O)N[C@@H](C)C(=O)N1CCC[C@H]1C(=O)N1CCC[C@H]1C(=O)N1CCC[C@H]1C(=O)N[C@@H](CO)C(N)=O [tirzepatide] |  | 10%
